Source: US8796273B2, “Compound for the treatment of enteroviruses” (priority 2010, dated 2014)

Key:
[1] = test system: Poliovirus 1 (PV1); assay: microbe, parasite or virus in culture; type: cell-based, Human enterovirus C; conditions: Enterovirus C, read-out: EC50, replication of Poliovirus 1 (PV1)
[2] = test system: Enterovirus 71 (EV71); assay: microbe, parasite or virus in culture; type: cell-based, Human enterovirus A; conditions: Enterovirus A, EV71, read-out: EC50, replication of Enterovirus 71 (EV71)

SMILES | EC50 [1] | EC50 [2]
COc1ccc(OCc2ccc(COc3c(Cl)cccc3Cl)cc2)c(Cl)c1 [Compound V-073, V-073] | 26 ± 23 nM | > 300000 nM
CC(C)S(=O)(=O)n1c(N)nc2ccc(/C(=N/O)c3ccccc3)cc21 [Enviroxime] | 790 ± 130 nM | 450 ± 120 nM
Cc1cc(CCCOc2c(C)cc(-c3noc(C(F)(F)F)n3)cc2C)on1 [Pleconaril] | > 300000 nM | > 300000 nM
CCOC(=O)/C=C/[C@H](C[C@@H]1CCNC1=O)NC(=O)[C@@H](CC(=O)[C@@H](NC(=O)c1cc(C)on1)C(C)C)Cc1ccc(F)cc1 [Rupintrivir] | 4500 ± 360 nM | 900 ± 70 nM
